Test results published in the supplement of paper PMC13207355.

How the values were obtained:
Settings in all cases: exposure time: 72 h
E31 [1] = patient-derived glioblastoma stem cells of proneural subtype; experiment: phenotypic distance (Euclidean, principal components) from DMSO controls (arbitrary units); higher = stronger morphological change
FT3469 [2] = normal neural stem cell line; experiment: as above
E57 [3] = patient-derived glioblastoma stem cells of mesenchymal subtype; experiment: as above
E21 [4] = patient-derived glioblastoma stem cells of mesenchymal subtype; experiment: as above
E13 [5] = patient-derived glioblastoma stem cells of classical subtype; experiment: as above
E28 [6] = patient-derived glioblastoma stem cells of classical subtype; experiment: as above
E34 [7] = patient-derived glioblastoma stem cells of proneural subtype; experiment: as above
E31 [8] = experiment: surviving fraction (nuclei count normalised to DMSO); higher = more cells surviving (less toxic)
FT3469 [9] = experiment: as above
E57 [10] = experiment: as above
E21 [11] = experiment: as above
E13 [12] = experiment: as above
E28 [13] = experiment: as above
E34 [14] = experiment: as above
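Wherever phenotypic distance (Euclidean, principal components) from DMSO controls is given: cell Painting imaging in 384-well plates, CellProfiler features reduced to at least 20 principal components, Euclidean distance versus same-plate DMSO vehicle wells (0.1% v/v), median over six images per well.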
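Wherever surviving fraction (nuclei count normalised to DMSO) is given: nuclei counted by high-content imaging of Hoechst-stained cells in laminin-coated 384-well plates, relative to 0.1% DMSO vehicle wells, with staurosporine as cell-death control.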

CC1(C(=O)O)C2CCC(O2)C1(C)C(=O)O (stereo unspecified) [Cantharidic Acid]
Settings	phenotypic distance	surviving fraction
E13 [5], 4.1 nM	0.746	–
E13 [5], 12.3 nM	0.673	–
E13 [5], 37 nM	0.774	–
E13 [5], 111.1 nM	0.872	–
E13 [5], 333.3 nM	0.83	–
E13 [5], 1000 nM	0.671	–
E13 [5], 3000 nM	2.26	–
E13 [12], 4.1 nM	–	0.839
E13 [12], 12.3 nM	–	0.973
E13 [12], 37 nM	–	0.995
E13 [12], 111.1 nM	–	1.11
E13 [12], 333.3 nM	–	0.921
E13 [12], 1000 nM	–	1.02
E13 [12], 3000 nM	–	0.939
E21 [4], 4.1 nM	0.625	–
E21 [4], 12.3 nM	0.711	–
E21 [4], 37 nM	1.21	–
E21 [4], 111.1 nM	0.773	–
E21 [4], 333.3 nM	0.585	–
E21 [4], 1000 nM	0.482	–
E21 [4], 3000 nM	2.17	–
E21 [11], 4.1 nM	–	0.955
E21 [11], 12.3 nM	–	0.853
E21 [11], 37 nM	–	1.11
E21 [11], 111.1 nM	–	1
E21 [11], 333.3 nM	–	1.03
E21 [11], 1000 nM	–	0.954
E21 [11], 3000 nM	–	0.922
E28 [6], 4.1 nM	0.917	–
E28 [6], 12.3 nM	0.654	–
E28 [6], 37 nM	0.463	–
E28 [6], 111.1 nM	0.528	–
E28 [6], 333.3 nM	0.599	–
E28 [6], 1000 nM	0.909	–
E28 [6], 3000 nM	2.54	–
E28 [13], 4.1 nM	–	0.901
E28 [13], 12.3 nM	–	1.05
E28 [13], 37 nM	–	0.971
E28 [13], 111.1 nM	–	1.07
E28 [13], 333.3 nM	–	1.11
E28 [13], 1000 nM	–	1.15
E28 [13], 3000 nM	–	0.771
E31 [1], 4.1 nM	1.05	–
E31 [1], 12.3 nM	0.816	–
E31 [1], 37 nM	1.07	–
E31 [1], 111.1 nM	1.09	–
E31 [1], 333.3 nM	0.68	–
E31 [1], 1000 nM	0.624	–
E31 [1], 3000 nM	1.67	–
E31 [8], 4.1 nM	–	1.07
E31 [8], 12.3 nM	–	1
E31 [8], 37 nM	–	1.16
E31 [8], 111.1 nM	–	1.05
E31 [8], 333.3 nM	–	1.04
E31 [8], 1000 nM	–	1.08
E31 [8], 3000 nM	–	0.683
E34 [7], 4.1 nM	1.38	–
E34 [7], 12.3 nM	1.36	–
E34 [7], 37 nM	1.46	–
E34 [7], 111.1 nM	1.49	–
E34 [7], 333.3 nM	1.07	–
E34 [7], 1000 nM	0.864	–
E34 [7], 3000 nM	3.29	–
E34 [14], 4.1 nM	–	0.916
E34 [14], 12.3 nM	–	1.08
E34 [14], 37 nM	–	0.914
E34 [14], 111.1 nM	–	1.1
E34 [14], 333.3 nM	–	1.22
E34 [14], 1000 nM	–	1.06
E34 [14], 3000 nM	–	0.832
E57 [3], 4.1 nM	0.632	–
E57 [3], 12.3 nM	0.322	–
E57 [3], 37 nM	0.414	–
E57 [3], 111.1 nM	0.564	–
E57 [3], 333.3 nM	0.544	–
E57 [3], 1000 nM	0.751	–
E57 [3], 3000 nM	1.72	–
E57 [10], 4.1 nM	–	0.985
E57 [10], 12.3 nM	–	0.996
E57 [10], 37 nM	–	0.944
E57 [10], 111.1 nM	–	1.03
E57 [10], 333.3 nM	–	1.04
E57 [10], 1000 nM	–	1.03
E57 [10], 3000 nM	–	0.947
FT3469 [2], 4.1 nM	1.06	–
FT3469 [2], 12.3 nM	0.717	–
FT3469 [2], 37 nM	0.644	–
FT3469 [2], 111.1 nM	0.683	–
FT3469 [2], 333.3 nM	0.991	–
FT3469 [2], 1000 nM	0.653	–
FT3469 [2], 3000 nM	2.25	–
FT3469 [9], 4.1 nM	–	0.889
FT3469 [9], 12.3 nM	–	0.855
FT3469 [9], 37 nM	–	1.07
FT3469 [9], 111.1 nM	–	1.03
FT3469 [9], 333.3 nM	–	1
FT3469 [9], 1000 nM	–	1.06
FT3469 [9], 3000 nM	–	0.777

C[C@@]12C(=O)OC(=O)[C@]1(C)[C@H]1CC[C@@H]2O1 [Cantharidin]
Settings	phenotypic distance	surviving fraction
E13 [5], 4.1 nM	0.99	–
E13 [5], 12.3 nM	0.872	–
E13 [5], 37 nM	1.04	–
E13 [5], 111.1 nM	2.26	–
E13 [5], 333.3 nM	7.52	–
E13 [5], 1000 nM	22.3	–
E13 [5], 3000 nM	22.7	–
E13 [12], 4.1 nM	–	0.826
E13 [12], 12.3 nM	–	0.96
E13 [12], 37 nM	–	0.919
E13 [12], 111.1 nM	–	0.735
E13 [12], 333.3 nM	–	0.139
E13 [12], 1000 nM	–	0.000925
E13 [12], 3000 nM	–	0
E21 [4], 4.1 nM	0.902	–
E21 [4], 12.3 nM	0.679	–
E21 [4], 37 nM	0.822	–
E21 [4], 111.1 nM	2.07	–
E21 [4], 333.3 nM	7.76	–
E21 [4], 1000 nM	24.2	–
E21 [4], 3000 nM	19.8	–
E21 [11], 4.1 nM	–	0.865
E21 [11], 12.3 nM	–	1.05
E21 [11], 37 nM	–	0.984
E21 [11], 111.1 nM	–	0.819
E21 [11], 333.3 nM	–	0.148
E21 [11], 1000 nM	–	0.00198
E21 [11], 3000 nM	–	0.00297
E28 [6], 4.1 nM	0.669	–
E28 [6], 12.3 nM	0.782	–
E28 [6], 37 nM	1.16	–
E28 [6], 111.1 nM	2.74	–
E28 [6], 333.3 nM	6.99	–
E28 [6], 1000 nM	10.5	–
E28 [6], 3000 nM	17.9	–
E28 [13], 4.1 nM	–	1.04
E28 [13], 12.3 nM	–	1.01
E28 [13], 37 nM	–	0.751
E28 [13], 111.1 nM	–	0.783
E28 [13], 333.3 nM	–	0.171
E28 [13], 1000 nM	–	0.0107
E28 [13], 3000 nM	–	0
E31 [1], 4.1 nM	1.14	–
E31 [1], 12.3 nM	0.733	–
E31 [1], 37 nM	1.22	–
E31 [1], 111.1 nM	2.51	–
E31 [1], 333.3 nM	10.8	–
E31 [1], 1000 nM	17.7	–
E31 [1], 3000 nM	15.6	–
E31 [8], 4.1 nM	–	0.771
E31 [8], 12.3 nM	–	0.967
E31 [8], 37 nM	–	0.793
E31 [8], 111.1 nM	–	0.531
E31 [8], 333.3 nM	–	0.0179
E31 [8], 1000 nM	–	0
E31 [8], 3000 nM	–	0.00163
E34 [7], 4.1 nM	0.932	–
E34 [7], 12.3 nM	0.828	–
E34 [7], 37 nM	0.895	–
E34 [7], 111.1 nM	2.91	–
E34 [7], 333.3 nM	8.47	–
E34 [7], 1000 nM	14.9	–
E34 [7], 3000 nM	24.2	–
E34 [14], 4.1 nM	–	0.848
E34 [14], 12.3 nM	–	1.05
E34 [14], 37 nM	–	1.05
E34 [14], 111.1 nM	–	0.764
E34 [14], 333.3 nM	–	0.323
E34 [14], 1000 nM	–	0.0804
E34 [14], 3000 nM	–	0.0035
E57 [3], 4.1 nM	4.16	–
E57 [3], 12.3 nM	0.795	–
E57 [3], 37 nM	0.509	–
E57 [3], 111.1 nM	1.44	–
E57 [3], 333.3 nM	7.24	–
E57 [3], 1000 nM	9.13	–
E57 [3], 3000 nM	24.7	–
E57 [10], 4.1 nM	–	0.874
E57 [10], 12.3 nM	–	0.97
E57 [10], 37 nM	–	0.933
E57 [10], 111.1 nM	–	0.882
E57 [10], 333.3 nM	–	0.172
E57 [10], 1000 nM	–	0.00764
E57 [10], 3000 nM	–	0.00204
FT3469 [2], 4.1 nM	1.54	–
FT3469 [2], 12.3 nM	0.532	–
FT3469 [2], 37 nM	1.22	–
FT3469 [2], 111.1 nM	1.87	–
FT3469 [2], 333.3 nM	5.81	–
FT3469 [2], 1000 nM	10.9	–
FT3469 [2], 3000 nM	17.1	–
FT3469 [9], 4.1 nM	–	0.78
FT3469 [9], 12.3 nM	–	1.06
FT3469 [9], 37 nM	–	0.835
FT3469 [9], 111.1 nM	–	0.714
FT3469 [9], 333.3 nM	–	0.276
FT3469 [9], 1000 nM	–	0.0288
FT3469 [9], 3000 nM	–	0.00288
